Measurements taken from patent US20050148514A1, “Method and composition for treatment of angiogenesis” (priority 2003, published 2005).
Where no end group is shown, it is not given here.

Columns and labels:
Type in all cases: cell-based
ERK = experiment: VEGF-induced ERK phosphorylation in BAEC; conditions: data not shown
Method: VEGF is a strong activator of ERKs (Extracellular-signal-Regulated protein Kinases) 1 and 2 via VEGF receptor 2. In order to test the ability of the PCK3145 derivative in potentially antagonizing VEGF-mediated ERK phosphorylation, serum-starved quiescent endothelial cells (HUVEC) were incubated with vehicle (phosphate-buffered saline (PBS) pH 7.4) or PCK3145 derivative (300 μg/ml) for 24 h and then stimulated with VEGF, bFGF (basic Fibroblast Growth Factor) or S1P (sphingosine-1-phosphate). Cells were washed with PBS containing NaF/Na3VO4 and incubated in the same medium buffer for 1 h at 4° C. The cells were scraped from the culture dishes and the resulting lysates clarified by centrifugation. Western blotting and immunodetection using anti-phosphoERK and anti-ERK antibodies was then performed.
The total amount of ERK in each sample of cells was unaffected by the PCK3145 derivative (FIG. 4A). Although, PCK3145 derivative also seemed to stimulate ERK phosphorylation induced by S1P in HUVEC (FIG. 4A), that result was found not statistically significant.

[1] = test system: constitutive secretion pathway; experiment: SEAP gene-reporter assay in U-87 glioma cells, constitutively expressed SEAP
Method: In order to investigate the potential intracellular pathways triggered by the PCK3145 derivative, a gene-reporter assay using the SEAP (Secreted Alkaline Phosphatase) Mercury Profiling Kit (CLONTECH) was performed in glioma cells (U-87). This assay enables the monitoring of transcription factors that are triggered by a particular experimental condition by assaying the alkaline phosphatase activity in the extracellular media. […] The induction of the MAPK pathway by the PCK3145 derivative is further confirmed by the rapid and transient induction of ERK phosphorylation between 5-10 minutes (FIG. 8B) and is shown to be dose-dependent (FIG. 8C). Finally, the effects of the PCK3145 derivative were also compared to those of a scrambled peptide.

MMP-9 = experiment: Gelatin zymography of culture media of MatLyLu tumor cells; conditions: 50 ug/ml collagen type-I, 500 ug/ml and 1 mg/ml, 72 hrs, serum free
Method: Zymography. Zymography is a technique generally used to analyze the activity of matrix metalloproteinases (MMPs) in biological samples. It involves the electrophoretic separation of proteins under denaturing (Sodium Dodecyl Sulfate (SDS)) but non-reducing conditions through a polyacrylamide gel containing gelatin (for example, 10% gel containing 1 mg/ml gelatin for MMP-9 and MMP-2 assays). The resolved proteins are re-natured by exchanging SDS with a non-ionic detergent such as Triton X-100 and the gel is incubated in an incubation buffer for activation of MMP-2 and MMP-9 (for example at 37° C. for 18 hrs). The gel is stained with Coomassie blue and the MMP-2 and MMP-9 bands may be visualized as clear bands against a blue background (i.e., the MMPs degrade the gelatin and are visualized as clear bands; pro MMP-2 is 68 kDa and pro-MMP-9 is 92 kDa). These bands can be quantified using densitometry.
In the experiment presented in FIG. 1, 2.5×10^5 MatLyLu tumor cells (American Type Culture Collection No.: JHU-5)) were seeded in T-25 flasks containing RPMI with 10% fetal bovine serum (FBS). […]
The media were collected after 72 hours of exposure to the PCK3145 derivative and subjected to gelatin zymography. […] The band intensities were determined using the Image Quant software (version 5.0) from molecular Dynamics. […]

Sequence: EWQTDNCETCTCYET (cysteine pairing not given here)
- ERK phosphorylation induced by VEGF (ERK): inhibitory effect was confirmed
- secretion of the constitutively expressed SEAP [1]: inhibited
- MMP-9 secreted in the cell culture media, zymography (MMP-9): dose-dependent reduction
